{"source": "patent US4430341A", "about": "“Water soluble pesticidal quaternary ammonium salt compounds” (Union Carbide Corporation, priority 1977, dated 1984)", "key": {"Soybean": {"test_system": "Soybean", "assay": "Phytotoxicity test, Soybean", "assay_type": "in vivo", "parameters": "key: 1: no perceptible injury; 2: intermediate degrees of injury based upon the number and extent to which leaves were injured; 3: intermediate degrees of injury based upon the number and extent to which leaves were injured; 4: intermediate degrees of injury based upon the number and extent to which leaves were injured; 5: the plant was dead", "details": "2500 parts per million; ten days", "protocol": "(§1) Experiments were also conducted to determine the phytotoxicity of a representative composition with respect to healthy fresh plants. A solution of the compound prepared as described above to provide a concentration of 2500 parts per million of the test compound. The test plants were sprayed in accordance with the procedure described above for the Mite Foliage Spray Test so as to deliver approximately 100 milliliters of test solution to the leaves of each plant tested. The sprayed plants and controls were set aside for approximately one hour to allow the solutions to dry and were then placed in the greenhouse. After ten days the plants were visually inspected to determine the extent of foliage injury. A rating of 1 indicates no perceptible injury; 5 indicates the plant was dead and ratings of 2, 3 and 4 indicate intermediate degrees of injury based upon the number and extent to which leaves were injured."}, "[1]": {"test_system": "Mexican bean beetle (Epilachna varivestis, Muls.)", "assay": "Mexican Bean Beetle Leaf Spray Test", "assay_type": "in vivo", "parameters": "key: A: Excellent control; B: Partial control; C: No control", "details": "500 parts per million; three days", "protocol": "(§2) The compound of EXAMPLE IV was evaluated to determine its pesticidal activity against mites and certain insects, including an aphid, a caterpillar, a beetle and a fly.\n(§3) Suspensions of the test compound was prepared by dissolving one gram of compound in 50 milliliters of acetone in which had been dissolved 0.1 gram (10 percent of the weight of compound) of an alkylphenoxy polyethoxyethanol surfactant, as an emulsifying or dispersing agent. The resulting solution was mixed into 150 milliliters of water to give roughly 200 of milliliters of a suspension containing the compound in finely divided form. The thus-prepared stock suspension contained 0.5 percent by weight of test compound. The test concentrations in parts per million by weight employed in the tests described hereinbelow were obtained by appropriate dilutions of the stock suspension with water. The test procedures were as follows.\nFourth instar larvae of the Mexican bean beetle (Epilachna varivestis, Muls.) reared on Tendergreen bean plants at a temperature of 80±5° and 50±5 percent relative humidity, were the test insects.\nThe test compound was formulated by diluting the stock suspension with water to give a suspension containing 500 parts of test compound per million parts of final formulation. […]"}, "[2]": {"test_system": "house flies (Musca domestica, L.)", "assay": "Fly Bait Test", "assay_type": "in vivo", "parameters": "key: A: Excellent control; B: Partial control; C: No control", "details": "500 parts per million in sugar solution bait; twenty four hours", "protocol": "as §2, §3\nFour to six day old adult house flies (Musca domestica, L.) reared according to the specifications of the Chemical Specialties Manufacturing Association (Blue Book, McNair-Dorland Co., N.Y., 1954; pages 243-244, 261) under controlled conditions of 80±° F. and 50±5 percent relative humidity, were the test insects. […]"}, "Cot. [3]": {"test_system": "Cot.", "assay": "Phytotoxicity test, Cot. (second column)", "assay_type": "in vivo", "parameters": "key: 1: no perceptible injury; 2: intermediate degrees of injury based upon the number and extent to which leaves were injured; 3: intermediate degrees of injury based upon the number and extent to which leaves were injured; 4: intermediate degrees of injury based upon the number and extent to which leaves were injured; 5: the plant was dead", "details": "2500 parts per million; ten days", "protocol": "as §1"}, "Bean": {"test_system": "Bean", "assay": "Phytotoxicity test, Bean", "assay_type": "in vivo", "parameters": "key: 1: no perceptible injury; 2: intermediate degrees of injury based upon the number and extent to which leaves were injured; 3: intermediate degrees of injury based upon the number and extent to which leaves were injured; 4: intermediate degrees of injury based upon the number and extent to which leaves were injured; 5: the plant was dead", "details": "2500 parts per million; ten days", "protocol": "as §1"}, "Tom.": {"test_system": "Tom.", "assay": "Phytotoxicity test, Tom.", "assay_type": "in vivo", "parameters": "key: 1: no perceptible injury; 2: intermediate degrees of injury based upon the number and extent to which leaves were injured; 3: intermediate degrees of injury based upon the number and extent to which leaves were injured; 4: intermediate degrees of injury based upon the number and extent to which leaves were injured; 5: the plant was dead", "details": "2500 parts per million; ten days", "protocol": "as §1"}, "[4]": {"test_system": "bean aphid (Aphis fabae Scop.)", "assay": "Bean Aphid Foliage Spray Test", "assay_type": "in vivo", "parameters": "key: A: Excellent control; B: Partial control; C: No control", "details": "500 parts per million; 24 hour holding period", "protocol": "as §2, §3\nAdults and nymphal stages of the bean aphid (Aphis fabae Scop.) reared on potted dwarf nasturtium plants at 65°-70° F. and 50-70 percent relative humidity, constituted the test insects. […]\nThe potted plants (one pot per compound tested) infested with 100-150 aphids, were placed on a revolving turntable and sprayed with 100-110 milliliters of test compound formulation by use of a DeVilbiss spray gun set at 40 psig. air pressure. […] Percent mortality was recorded for various concentration levels. […]"}, "[5]": {"test_system": "two-spotted mite (Tetranychus urticae Koch)", "assay": "Mite Foliage Spray Test", "assay_type": "in vivo", "parameters": "key: A: Excellent control; B: Partial control; C: No control", "details": "500 parts per million; six days", "protocol": "as §2, §3\nAdults and nymphal stages of the two-spotted mite (Tetranychus urticae Koch), reared on Tendergreen bean plants at 80±5 percent relative humidity, were the test organisms. Infested leaves from a stock culture were placed on the primary leaves of two bean plants six to eight inches in height, growing in a two- and-a-half inch clay pot. 150-200 mites, a sufficient number for testing, transferred from the excised leaves to the fresh plants in a period of twenty-four hours. […]"}, "Water solubility": {"assay": "Water solubility", "assay_type": "physicochemical", "details": "25° C."}, "[6]": {"test_system": "southern armyworm (Prodenia Eridania, (Cram.))", "assay": "Southern Armyworm Leaf Spray Test", "assay_type": "in vivo", "parameters": "key: A: Excellent control; B: Partial control; C: No control", "details": "500 parts per million; three days", "protocol": "as §2, §3\nLarvae of the southern armyworm (Prodenia Eridania, (Cram.), reared on Tendergreen bean plants at a temperature of 80±5° F. and relative humidity of 50±5 percent, constituted the test insects. […]\nThis application which lasted 25 seconds was sufficient to wet plants to run-off. […] Percent mortality was recorded for various concentration levels. […]"}, "Cot. [7]": {"test_system": "Cot.", "assay": "Phytotoxicity test, Cot. (fourth column)", "assay_type": "in vivo", "parameters": "key: 1: no perceptible injury; 2: intermediate degrees of injury based upon the number and extent to which leaves were injured; 3: intermediate degrees of injury based upon the number and extent to which leaves were injured; 4: intermediate degrees of injury based upon the number and extent to which leaves were injured; 5: the plant was dead", "details": "2500 parts per million; ten days", "protocol": "as §1"}}}
{"smiles": "CN(C(=O)C[N+](C)(C)CCOCC[N+](C)(C)CC(=O)N(C)C(=O)Oc1cccc2ccccc12)C(=O)Oc1cccc2ccccc12", "note": "[EXAMPLE IV]", "values": [{"measurement": "Herbicidal: Soybean", "setting": "Soybean", "result": 2}, {"measurement": "Insecticidal and Miticidal: Mexican Bean Beetle", "setting": "[1]", "result": "A"}, {"measurement": "Insecticidal and Miticidal: House Fly", "setting": "[2]", "result": "A"}, {"measurement": "Herbicidal: Cot.", "setting": "Cot. [3]", "result": 1}, {"measurement": "Herbicidal: Bean", "setting": "Bean", "result": 2}, {"measurement": "Herbicidal: Tom.", "setting": "Tom.", "result": 1}, {"measurement": "Insecticidal and Miticidal: Aphid", "setting": "[4]", "result": "B"}, {"measurement": "Insecticidal and Miticidal: Mite", "setting": "[5]", "result": "C"}, {"measurement": "% Water Solubility", "setting": "Water solubility", "result": 20, "unit": "%"}, {"measurement": "solubility", "setting": "Water solubility; water", "result": 200, "unit": "mg/mL"}, {"measurement": "Insecticidal and Miticidal: So. Army Worm", "setting": "[6]", "result": "A"}, {"measurement": "Herbicidal: Cot.", "setting": "Cot. [7]", "result": 2}]}
